In ChEMBL document CHEMBL3137667, “[Drug-induced liver injury; fourteenth updated edition of the bibliographic database of liver injuries and related drugs]” (Gastroenterol Clin Biol, 2004):

Key:
[1] = Highest frequency of moderate liver toxicity observed during clinical trials, expressed as a percentage. [column '% BIOL' in source]; settings: human
[2] = Highest frequency of acute liver toxicity observed during clinical trials, expressed as a percentage. [column '% AIGUE' in source]; settings: human
[3] = Times to onset, minimal and maximal, observed in the indexed observations. [column 'DELAI' in source]; settings: human
[4] = human, serum
[5] = human
[6] = human; remark: listed apart in the source
[7] = human; remark: listed apart in the source
[8] = human, serum, 4383 h
[9] = human; remark: listed apart in the source
[10] = human; remark: listed apart in the source
[11] = human; remark: listed apart in the source
[12] = human; remark: listed apart in the source
[13] = human; remark: listed apart in the source
[14] = human; remark: listed apart in the source
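Throughout, for Hepatotoxicity (association with vascular disease): count of indexed literature references reporting vascular liver injury in humans, e.g. peliosis hepatitis, hepatic veno-occlusive disease or Budd-Chiari syndrome.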
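Throughout, for Hepatotoxicity (benign tumour): value is a count of indexed literature references citing a benign tumour confirmed by histopathology.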
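Throughout, for Hepatotoxicity (choleostasis): human cholestatic liver injury, shown by histopathology or by peak ALT or AST elevation over alkaline phosphatase ratio below 2, value counts indexed literature reports.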
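Throughout, for Hepatotoxicity (chronic liver disease): chronic liver injury confirmed by histopathology or persistently raised serum aminotransferase activity beyond 6 months, value given as the count of indexed literature references.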
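Throughout, for Hepatotoxicity (cirrhosis): value is a count of indexed literature references reporting cirrhosis confirmed by histopathology.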
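Throughout, for Hepatotoxicity (cytolytic): human cytolytic liver injury, shown by histopathology or by a ratio above 5 of peak ALT or AST elevation to alkaline phosphatase elevation, value counts indexed references.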
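Throughout, for Hepatotoxicity (granulomatous hepatitis): value is a count of indexed literature references reporting granulomatous liver disease confirmed by histopathology.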
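Throughout, for Hepatotoxicity (malignant tumour): malignant tumour confirmed by histopathology, value gives the count of indexed literature references reporting it.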
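Throughout, for Hepatotoxicity (severe hepatitis): human clinical data: severe hepatitis, meaning potentially life-threatening liver failure or clinically observed cases, the value counts how many indexed literature references report it.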
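Throughout, for Hepatotoxicity (steatosis): steatosis confirmed by histopathology, value is the count of indexed references.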

Question: Which results are given for `CC(C)n1c(/C=C/C(O)CC(O)CC(=O)O)c(-c2ccc(F)cc2)c2ccccc21` (centres undefined) [FLUVASTATIN]?
Answer: Hepatotoxicity (moderate) ([1]; Liver): 55%; Hepatotoxicity (acute) ([2]; Liver): 1.2%; Hepatotoxicity (time to onset) [3]: 8 months; Hepatotoxicity (moderate) [4]: 36; Hepatotoxicity (cytolytic) ([5]; Liver): 3; Hepatotoxicity (choleostasis) ([6]; Liver): 2; Hepatotoxicity (severe hepatitis) ([7]; Liver): 0; Hepatotoxicity (chronic liver disease) [8]: 0; Hepatotoxicity (cirrhosis) [9]: 0; Hepatotoxicity (granulomatous hepatitis) ([10]; Liver): 0; Hepatotoxicity (association with vascular disease) [11]: 0; Hepatotoxicity (steatosis) [12]: 0; Hepatotoxicity (malignant tumour) [13]: 0; Hepatotoxicity (benign tumour) [14]: 0

Question: Which results are given for `O=C(NCC1CCCCN1)c1cc(OCC(F)(F)F)ccc1OCC(F)(F)F` (centres undefined) [FLECAINIDE]?
Answer: Hepatotoxicity (moderate) [1]: 36.7%; Hepatotoxicity (acute) [2]: 0%; Hepatotoxicity (time to onset) [3]: 2 days - 1 month; Hepatotoxicity (moderate) [4]: 3; Hepatotoxicity (cytolytic) [5]: 1; Hepatotoxicity (choleostasis) [6]: 2; Hepatotoxicity (severe hepatitis) [7]: 0; Hepatotoxicity (chronic liver disease) [8]: 0; Hepatotoxicity (cirrhosis) [9]: 0; Hepatotoxicity (granulomatous hepatitis) [10]: 0; Hepatotoxicity (association with vascular disease) [11]: 0; Hepatotoxicity (steatosis) [12]: 0; Hepatotoxicity (malignant tumour) [13]: 0; Hepatotoxicity (benign tumour) [14]: 0

Question: Which “Hepatotoxicity (moderate)” value ([1]; Liver) does the source give for `Cc1ccc(NC(=O)c2ccc(CN3CCN(C)CC3)cc2)cc1Nc1nccc(-c2cccnc2)n1` [IMATINIB] here?
Answer: 100%

Question: And the “Hepatotoxicity (time to onset)” value [3]?
Answer: 11 days - 12 days

Question: And the “Hepatotoxicity (moderate)” value [4]?
Answer: 5

Question: What about the “Hepatotoxicity (cytolytic)” value [5] of the same compound?
Answer: 1

Question: What about the “Hepatotoxicity (choleostasis)” value [6] of the same compound?
Answer: 0

Question: What about the “Hepatotoxicity (severe hepatitis)” value ([7]; Liver) of the same compound?
Answer: 1

Question: And the “Hepatotoxicity (chronic liver disease)” value [8]?
Answer: 0

Question: And the “Hepatotoxicity (cirrhosis)” value [9]?
Answer: 0

Question: And the “Hepatotoxicity (granulomatous hepatitis)” value [10]?
Answer: 0

Question: What about the “Hepatotoxicity (association with vascular disease)” value [11] of the same compound?
Answer: 0

Question: And the “Hepatotoxicity (steatosis)” value [12]?
Answer: 0

Question: What about the “Hepatotoxicity (malignant tumour)” value [13] of the same compound?
Answer: 0

Question: And the “Hepatotoxicity (benign tumour)” value [14]?
Answer: 0

Question: For `CN(C)CCCC1(c2ccc(F)cc2)OCc2cc(C#N)ccc21` (centres undefined) [CITALOPRAM], which “Hepatotoxicity (moderate)” value [1] is on record?
Answer: 5.3%

Question: What about the “Hepatotoxicity (acute)” value [2] of the same compound?
Answer: 0%

Question: What about the “Hepatotoxicity (time to onset)” value [3] of the same compound?
Answer: 4 weeks - 2 months

Question: What about the “Hepatotoxicity (moderate)” value [4] of the same compound?
Answer: 2

Question: What about the “Hepatotoxicity (cytolytic)” value [5] of the same compound?
Answer: 1

Question: What about the “Hepatotoxicity (choleostasis)” value [6] of the same compound?
Answer: 1

Question: And the “Hepatotoxicity (severe hepatitis)” value [7]?
Answer: 1

Question: And the “Hepatotoxicity (chronic liver disease)” value [8]?
Answer: 0

Question: And the “Hepatotoxicity (cirrhosis)” value [9]?
Answer: 0

Question: And the “Hepatotoxicity (granulomatous hepatitis)” value [10]?
Answer: 0

Question: And the “Hepatotoxicity (association with vascular disease)” value [11]?
Answer: 0

Question: What about the “Hepatotoxicity (steatosis)” value [12] of the same compound?
Answer: 0

Question: And the “Hepatotoxicity (malignant tumour)” value [13]?
Answer: 0

Question: What about the “Hepatotoxicity (benign tumour)” value [14] of the same compound?
Answer: 0

Question: Which “Hepatotoxicity (moderate)” value ([1]; Liver) does the source give for `Cc1nnc2n1-c1ccc(Cl)cc1C(c1ccccc1Cl)=NC2` [TRIAZOLAM] here?
Answer: 0%

Question: What about the “Hepatotoxicity (time to onset)” value [3] of the same compound?
Answer: 4 months

Question: What about the “Hepatotoxicity (moderate)” value [4] of the same compound?
Answer: 1

Question: What about the “Hepatotoxicity (cytolytic)” value [5] of the same compound?
Answer: 1

Question: And the “Hepatotoxicity (choleostasis)” value [6]?
Answer: 2

Question: And the “Hepatotoxicity (severe hepatitis)” value ([7]; Liver)?
Answer: 2

Question: And the “Hepatotoxicity (chronic liver disease)” value [8]?
Answer: 0

Question: And the “Hepatotoxicity (cirrhosis)” value [9]?
Answer: 0

Question: What about the “Hepatotoxicity (granulomatous hepatitis)” value [10] of the same compound?
Answer: 0

Question: What about the “Hepatotoxicity (association with vascular disease)” value [11] of the same compound?
Answer: 0

Question: And the “Hepatotoxicity (steatosis)” value [12]?
Answer: 0

Question: What about the “Hepatotoxicity (malignant tumour)” value [13] of the same compound?
Answer: 0

Question: And the “Hepatotoxicity (benign tumour)” value [14]?
Answer: 0

Question: For `CC(C(=O)O)c1cccc(C(=O)c2ccccc2)c1` (centres undefined) [KETOPROFEN], which “Hepatotoxicity (moderate)” value [1] is on record?
Answer: 2.5%

Question: What about the “Hepatotoxicity (acute)” value [2] of the same compound?
Answer: 0%

Question: And the “Hepatotoxicity (time to onset)” value [3]?
Answer: 2 days - 2 weeks

Question: What about the “Hepatotoxicity (moderate)” value [4] of the same compound?
Answer: 3

Question: What about the “Hepatotoxicity (cytolytic)” value [5] of the same compound?
Answer: 3

Question: And the “Hepatotoxicity (choleostasis)” value [6]?
Answer: 5

Question: And the “Hepatotoxicity (severe hepatitis)” value [7]?
Answer: 2

Question: And the “Hepatotoxicity (chronic liver disease)” value [8]?
Answer: 0

Question: What about the “Hepatotoxicity (cirrhosis)” value [9] of the same compound?
Answer: 0

Question: And the “Hepatotoxicity (granulomatous hepatitis)” value [10]?
Answer: 0

Question: And the “Hepatotoxicity (association with vascular disease)” value [11]?
Answer: 0

Question: And the “Hepatotoxicity (steatosis)” value [12]?
Answer: 3

Question: What about the “Hepatotoxicity (malignant tumour)” value [13] of the same compound?
Answer: 0

Question: What about the “Hepatotoxicity (benign tumour)” value [14] of the same compound?
Answer: 0

Question: For `C[C@@H](c1ncncc1F)[C@](O)(Cn1cncn1)c1ccc(F)cc1F` [VORICONAZOLE], which “Hepatotoxicity (moderate)” value [1] is on record?
Answer: 9.5%

Question: What about the “Hepatotoxicity (acute)” value [2] of the same compound?
Answer: 0%

Question: What about the “Hepatotoxicity (time to onset)” value [3] of the same compound?
Answer: 1 day - 1 year

Question: And the “Hepatotoxicity (moderate)” value [4]?
Answer: 10

Question: And the “Hepatotoxicity (cytolytic)” value [5]?
Answer: 1

Question: And the “Hepatotoxicity (choleostasis)” value [6]?
Answer: 1

Question: And the “Hepatotoxicity (severe hepatitis)” value [7]?
Answer: 1

Question: And the “Hepatotoxicity (chronic liver disease)” value [8]?
Answer: 0

Question: What about the “Hepatotoxicity (cirrhosis)” value [9] of the same compound?
Answer: 0

Question: And the “Hepatotoxicity (granulomatous hepatitis)” value [10]?
Answer: 0

Question: And the “Hepatotoxicity (association with vascular disease)” value [11]?
Answer: 0

Question: And the “Hepatotoxicity (steatosis)” value [12]?
Answer: 0

Question: And the “Hepatotoxicity (malignant tumour)” value [13]?
Answer: 0

Question: And the “Hepatotoxicity (benign tumour)” value [14]?
Answer: 0

Question: With `O=C(O)CCc1nc(-c2ccccc2)c(-c2ccccc2)o1` [OXAPROZIN] as the compound, how does the “Hepatotoxicity (moderate)” value [1] read?
Answer: 20%

Question: What about the “Hepatotoxicity (acute)” value [2] of the same compound?
Answer: 0.1%

Question: And the “Hepatotoxicity (time to onset)” value [3]?
Answer: 2 weeks - 6 months

Question: What about the “Hepatotoxicity (moderate)” value [4] of the same compound?
Answer: 4

Question: And the “Hepatotoxicity (cytolytic)” value [5]?
Answer: 2

Question: And the “Hepatotoxicity (choleostasis)” value [6]?
Answer: 0

Question: What about the “Hepatotoxicity (severe hepatitis)” value [7] of the same compound?
Answer: 1

Question: And the “Hepatotoxicity (chronic liver disease)” value [8]?
Answer: 0

Question: What about the “Hepatotoxicity (cirrhosis)” value [9] of the same compound?
Answer: 0

Question: What about the “Hepatotoxicity (granulomatous hepatitis)” value [10] of the same compound?
Answer: 0

Question: And the “Hepatotoxicity (association with vascular disease)” value [11]?
Answer: 0

Question: And the “Hepatotoxicity (steatosis)” value [12]?
Answer: 0

Question: And the “Hepatotoxicity (malignant tumour)” value [13]?
Answer: 0

Question: What about the “Hepatotoxicity (benign tumour)” value [14] of the same compound?
Answer: 0

Question: With `COC(=O)C1=C(C)NC(C)=C(C(=O)OCCN(C)Cc2ccccc2)C1c1cccc([N+](=O)[O-])c1` (centres undefined) [NICARDIPINE] as the compound, how does the “Hepatotoxicity (moderate)” value [1] read?
Answer: 6.7%

Question: And the “Hepatotoxicity (acute)” value [2]?
Answer: 0%

Question: And the “Hepatotoxicity (time to onset)” value [3]?
Answer: 2 months

Question: What about the “Hepatotoxicity (moderate)” value [4] of the same compound?
Answer: 6

Question: And the “Hepatotoxicity (cytolytic)” value [5]?
Answer: 0

Question: And the “Hepatotoxicity (choleostasis)” value [6]?
Answer: 0

Question: And the “Hepatotoxicity (severe hepatitis)” value [7]?
Answer: 0

Question: What about the “Hepatotoxicity (chronic liver disease)” value [8] of the same compound?
Answer: 0

Question: What about the “Hepatotoxicity (cirrhosis)” value [9] of the same compound?
Answer: 0

Question: What about the “Hepatotoxicity (granulomatous hepatitis)” value [10] of the same compound?
Answer: 0

Question: What about the “Hepatotoxicity (association with vascular disease)” value [11] of the same compound?
Answer: 0

Question: And the “Hepatotoxicity (steatosis)” value [12]?
Answer: 1

Question: And the “Hepatotoxicity (malignant tumour)” value [13]?
Answer: 0

Question: What about the “Hepatotoxicity (benign tumour)” value [14] of the same compound?
Answer: 0
